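96-well plates; 48 h exposure; 5 concentrations. Endpoints by linear interpolation between flanking doses. Not reached: highest tested concentration assigned. TGI: concentration producing complete growth inhibition.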

One experiment has as its system HCT-15 colon. In words: DTP human tumour cell line panel, 48 h.
What is called TGI is the concentration at which net growth stops. A lower TGI goes with more potent growth arrest. With `Cc1n(CC(C)C)c2c([n+]1C)C(=O)c1ccccc1C2=O`, the total growth inhibition concentration (TGI) amounted to 4.39 µM.
On the same count and under the same terms, the result for `N[C@@H]1CCN(c2c(F)cc3c(=O)c(C(=O)O)cn4c3c2Oc2c-4ccc3c2ccc2ccccc23)C1` reads more than 100 µM; that for `Cc1ccc(C2(O)CSC(=NC34CC5CC(CC(C5)C3)C4)N2C(P(=O)(O)O)P(=O)(O)O)cc1` (stereo not drawn), more than 100 µM; that for `CC(C)CCNC(=O)c1ccc(CNC(=O)/C=C/c2cccc(Oc3ccccc3)c2)cc1`, more than 100 µM.
On the same count and under the same terms, the value for `C/C(=N\NS(=O)(=O)c1ccc(C)cc1)c1ccccn1` was more than 100 µM; that for `Cc1ccc2c(ccc(/C=C/c3ccc(O)c4ncccc34)[n+]2C)c1` was more than 100 µM.
In turn, `CCOC(=O)c1ccc(N=C/C=C(\Nc2ccc(C(=O)OCC)cc2)C23CC4CC(CC(C4)C2)C3)cc1` had a TGI of more than 100 µM.
Same read-out and setting: the result for `Cc1ccc(C(=O)N/N=C(\N=Nc2cccc([N+](=O)[O-])c2)c2ccc(N(CCC#N)CCC#N)cc2C)cc1` reads more than 100 µM.
Still for that read-out and setting: the value for `O=C(O)c1c2c(cc3c1CC(Cc1ccccc1)C3=O)CCC2` (stereo not drawn) was more than 100 µM.
For the compound `OC(CC1CCCCN1)c1ccc2c(c1)oc1ccccc12` (stereo not drawn), the TGI is more than 100 µM.
On the same count and under the same terms, the result for `C=CCCON(C(=O)OC(C)(C)C)c1ccccc1` reads more than 100 µM.
Consider `O=C1OC(CCCN2CCCCC2)(c2ccccc2)CC12CCCC2` (stereo not drawn), for which the TGI was more than 100 µM.
Still for that read-out and setting: the result for `COC(=O)[C@@H]1C=C[C@H](OC2OC(COC(C)=O)C(OC(C)=O)C(OC(C)=O)C2OC(C)=O)n2c(=O)n(-c3ccccc3)c(=O)n21` (stereo partly drawn) reads 3.85 µM.
Regarding `C=CCn1c(N)c(C#N)c(C#N)c1CCC`, the TGI was more than 100 µM.
Same read-out and setting: the result for `COC(=O)C1=C(OC(=O)/C(=C/c2ccccc2)c2ccc(Cl)cc2Cl)C(C(=O)OC)[C@@]2(O)[C@@H](C(=O)OC)[C@H](C)C[C@@H]1[C@@H]2C(=O)OC` (stereo partly drawn) reads more than 100 µM; that for `C#CCn1c(=O)c(I)cn(/C(=C/C(=O)OCC)C(=O)OCC)c1=O`, 8.03 µM.
On to `CS(=O)(=O)C(C#N)c1nc2ccccc2nc1Cl` (stereo not drawn), for which the TGI was more than 100 µM.

The subject of another experiment is HOP-92 NSCLC. In words: DTP human tumour cell line panel, 48 h.
Compound `Cc1n(CC(C)C)c2c([n+]1C)C(=O)c1ccccc1C2=O` displayed a TGI of 4.44 µM.
On the same count and under the same terms, the value for `N[C@@H]1CCN(c2c(F)cc3c(=O)c(C(=O)O)cn4c3c2Oc2c-4ccc3c2ccc2ccccc23)C1` was 61.7 µM.
Still for that read-out and setting: the value for `Cc1ccc(C2(O)CSC(=NC34CC5CC(CC(C5)C3)C4)N2C(P(=O)(O)O)P(=O)(O)O)cc1` (stereo not drawn) was more than 100 µM.
Same read-out and setting: the result for `CC(C)CCNC(=O)c1ccc(CNC(=O)/C=C/c2cccc(Oc3ccccc3)c2)cc1` reads more than 100 µM.
Consider `C/C(=N\NS(=O)(=O)c1ccc(C)cc1)c1ccccn1`, for which the TGI was more than 100 µM.
Same read-out and setting: the result for `Cc1ccc2c(ccc(/C=C/c3ccc(O)c4ncccc34)[n+]2C)c1` reads 31.1 µM; that for `CCOC(=O)c1ccc(N=C/C=C(\Nc2ccc(C(=O)OCC)cc2)C23CC4CC(CC(C4)C2)C3)cc1`, more than 100 µM; that for `Cc1ccc(C(=O)N/N=C(\N=Nc2cccc([N+](=O)[O-])c2)c2ccc(N(CCC#N)CCC#N)cc2C)cc1`, more than 100 µM.
`O=C(O)c1c2c(cc3c1CC(Cc1ccccc1)C3=O)CCC2` (stereo not drawn): the TGI was more than 100 µM.
Still for that read-out and setting: the result for `OC(CC1CCCCN1)c1ccc2c(c1)oc1ccccc12` (stereo not drawn) reads more than 100 µM; that for `C=CCCON(C(=O)OC(C)(C)C)c1ccccc1`, more than 100 µM; that for `O=C1OC(CCCN2CCCCC2)(c2ccccc2)CC12CCCC2` (stereo not drawn), more than 90.8 µM.
The same measure, in the same setting: the value for `COC(=O)[C@@H]1C=C[C@H](OC2OC(COC(C)=O)C(OC(C)=O)C(OC(C)=O)C2OC(C)=O)n2c(=O)n(-c3ccccc3)c(=O)n21` (stereo partly drawn) was 3.59 µM.
Regarding `C=CCn1c(N)c(C#N)c(C#N)c1CCC`, the TGI is more than 100 µM.
The same measure, in the same setting: the value for `COC(=O)C1=C(OC(=O)/C(=C/c2ccccc2)c2ccc(Cl)cc2Cl)C(C(=O)OC)[C@@]2(O)[C@@H](C(=O)OC)[C@H](C)C[C@@H]1[C@@H]2C(=O)OC` (stereo partly drawn) was more than 100 µM; that for `C#CCn1c(=O)c(I)cn(/C(=C/C(=O)OCC)C(=O)OCC)c1=O` was 3.37 µM.
For the compound `CS(=O)(=O)C(C#N)c1nc2ccccc2nc1Cl` (stereo not drawn), the concentration for total growth inhibition (TGI) was more than 100 µM.

A further experiment relates to HS 578T breast. The experiment can be described thus: DTP human tumour cell line panel, 48 h.
As to `Cc1n(CC(C)C)c2c([n+]1C)C(=O)c1ccccc1C2=O`, the TGI was determined as 3.05 µM.
Still for that read-out and setting: the result for `N[C@@H]1CCN(c2c(F)cc3c(=O)c(C(=O)O)cn4c3c2Oc2c-4ccc3c2ccc2ccccc23)C1` reads more than 100 µM; that for `Cc1ccc(C2(O)CSC(=NC34CC5CC(CC(C5)C3)C4)N2C(P(=O)(O)O)P(=O)(O)O)cc1` (stereo not drawn), more than 100 µM; that for `CC(C)CCNC(=O)c1ccc(CNC(=O)/C=C/c2cccc(Oc3ccccc3)c2)cc1`, more than 100 µM.
Same read-out and setting: the value for `C/C(=N\NS(=O)(=O)c1ccc(C)cc1)c1ccccn1` was more than 100 µM.
For `Cc1ccc2c(ccc(/C=C/c3ccc(O)c4ncccc34)[n+]2C)c1`, the TGI was more than 100 µM.
Same read-out and setting: the value for `CCOC(=O)c1ccc(N=C/C=C(\Nc2ccc(C(=O)OCC)cc2)C23CC4CC(CC(C4)C2)C3)cc1` was more than 100 µM.
`Cc1ccc(C(=O)N/N=C(\N=Nc2cccc([N+](=O)[O-])c2)c2ccc(N(CCC#N)CCC#N)cc2C)cc1` gave a TGI of more than 88.3 µM.
`O=C(O)c1c2c(cc3c1CC(Cc1ccccc1)C3=O)CCC2` (stereo not drawn) registered a TGI of more than 100 µM.
For `OC(CC1CCCCN1)c1ccc2c(c1)oc1ccccc12` (stereo not drawn), the TGI was more than 100 µM.
In the case of `C=CCCON(C(=O)OC(C)(C)C)c1ccccc1`, the TGI was more than 100 µM.
Same read-out and setting: the value for `O=C1OC(CCCN2CCCCC2)(c2ccccc2)CC12CCCC2` (stereo not drawn) was more than 100 µM.
Still for that read-out and setting: the value for `COC(=O)[C@@H]1C=C[C@H](OC2OC(COC(C)=O)C(OC(C)=O)C(OC(C)=O)C2OC(C)=O)n2c(=O)n(-c3ccccc3)c(=O)n21` (stereo partly drawn) was 45.8 µM; that for `C=CCn1c(N)c(C#N)c(C#N)c1CCC` was more than 100 µM; that for `COC(=O)C1=C(OC(=O)/C(=C/c2ccccc2)c2ccc(Cl)cc2Cl)C(C(=O)OC)[C@@]2(O)[C@@H](C(=O)OC)[C@H](C)C[C@@H]1[C@@H]2C(=O)OC` (stereo partly drawn) was more than 100 µM.
Turning to `C#CCn1c(=O)c(I)cn(/C(=C/C(=O)OCC)C(=O)OCC)c1=O`, the TGI is more than 100 µM.
Still for that read-out and setting: the value for `CS(=O)(=O)C(C#N)c1nc2ccccc2nc1Cl` (stereo not drawn) was more than 100 µM.

The test system of a further experiment is MDA-MB-435. The experiment can be described thus: DTP human tumour cell line panel, 48 h.
Compound `Cc1n(CC(C)C)c2c([n+]1C)C(=O)c1ccccc1C2=O` showed a total growth inhibition concentration (TGI) of 0.277 µM.
Same read-out and setting: the result for `N[C@@H]1CCN(c2c(F)cc3c(=O)c(C(=O)O)cn4c3c2Oc2c-4ccc3c2ccc2ccccc23)C1` reads more than 100 µM; that for `Cc1ccc(C2(O)CSC(=NC34CC5CC(CC(C5)C3)C4)N2C(P(=O)(O)O)P(=O)(O)O)cc1` (stereo not drawn), more than 100 µM.
The same measure, in the same setting: the value for `CC(C)CCNC(=O)c1ccc(CNC(=O)/C=C/c2cccc(Oc3ccccc3)c2)cc1` was 41.6 µM; that for `C/C(=N\NS(=O)(=O)c1ccc(C)cc1)c1ccccn1` was more than 100 µM.
On to `Cc1ccc2c(ccc(/C=C/c3ccc(O)c4ncccc34)[n+]2C)c1`, for which the TGI was more than 52.1 µM.
The same measure, in the same setting: the result for `CCOC(=O)c1ccc(N=C/C=C(\Nc2ccc(C(=O)OCC)cc2)C23CC4CC(CC(C4)C2)C3)cc1` reads more than 100 µM; that for `Cc1ccc(C(=O)N/N=C(\N=Nc2cccc([N+](=O)[O-])c2)c2ccc(N(CCC#N)CCC#N)cc2C)cc1`, 54.3 µM; that for `O=C(O)c1c2c(cc3c1CC(Cc1ccccc1)C3=O)CCC2` (stereo not drawn), more than 100 µM.
Take `OC(CC1CCCCN1)c1ccc2c(c1)oc1ccccc12` (stereo not drawn): the total growth inhibition concentration (TGI) was more than 100 µM.
The compound `C=CCCON(C(=O)OC(C)(C)C)c1ccccc1` yielded a TGI of more than 100 µM.
Still for that read-out and setting: the result for `O=C1OC(CCCN2CCCCC2)(c2ccccc2)CC12CCCC2` (stereo not drawn) reads more than 100 µM; that for `COC(=O)[C@@H]1C=C[C@H](OC2OC(COC(C)=O)C(OC(C)=O)C(OC(C)=O)C2OC(C)=O)n2c(=O)n(-c3ccccc3)c(=O)n21` (stereo partly drawn), 11.9 µM; that for `C=CCn1c(N)c(C#N)c(C#N)c1CCC`, more than 100 µM.
On the same count and under the same terms, the result for `COC(=O)C1=C(OC(=O)/C(=C/c2ccccc2)c2ccc(Cl)cc2Cl)C(C(=O)OC)[C@@]2(O)[C@@H](C(=O)OC)[C@H](C)C[C@@H]1[C@@H]2C(=O)OC` (stereo partly drawn) reads more than 100 µM.
Still for that read-out and setting: the value for `C#CCn1c(=O)c(I)cn(/C(=C/C(=O)OCC)C(=O)OCC)c1=O` was 19.8 µM; that for `CS(=O)(=O)C(C#N)c1nc2ccccc2nc1Cl` (stereo not drawn) was more than 100 µM.

(Values after PubChem BioAssay (NCI).)
